# Measured values: ChEMBL document CHEMBL5058564, “EUbOPEN Chemogenomics Library 2 (Incucyte)” (2022)
# Several values for one entry are separate records, joined by “and”; a condition that tells them apart may be missing. Equal values may be shown once.
# Columns and labels:
# Assay type in all cases: toxicity, cell-based
# HEK-293T = test: Incucyte cell viability with HEK293T; settings: human, 10 µM, compound concentration 10 uM
# Fibroblast = test: Incucyte cell viability with human fibroblast; settings: 10 µM, compound concentration 10 uM
# U2OS = test: Incucyte cell viability with U2OS; settings: human, 10 µM, compound concentration 10 uM
# [1] = 0 h, replicate number 2, timepoint 0 hours
# [2] = 6 h, replicate number 1, timepoint 6 hours
# [3] = 12 h, replicate number 1, timepoint 12 hours
# [4] = 18 h, replicate number 1, timepoint 18 hours
# [5] = 24 h, replicate number 1, timepoint 24 hours
# [6] = 24 h, replicate number 2, timepoint 24 hours
# [7] = 6 h, replicate number 2, timepoint 6 hours
# [8] = 12 h, replicate number 2, timepoint 12 hours
# [9] = 18 h, replicate number 2, timepoint 18 hours
# [10] = 0 h, replicate number 1, timepoint 0 hours
# Note: unitless GR value; below 1 slowed growth and below 0 cell loss.
SMILES,Growth Rate (HEK-293T; [1]),Growth Rate (HEK-293T; [2]),Growth Rate (HEK-293T; [3]),Growth Rate (HEK-293T; [4]),Growth Rate (HEK-293T; [5]),Growth Rate (HEK-293T; [6]),Growth Rate (Fibroblast; [1]),Growth Rate (Fibroblast; [3]),Growth Rate (Fibroblast; [8]),Growth Rate (Fibroblast; [9]),Growth Rate (Fibroblast; [5]),Growth Rate (Fibroblast; [6]),Growth Rate (U2OS; [10]),Growth Rate (U2OS; [1]),Growth Rate (U2OS; [2]),Growth Rate (U2OS; [3]),Growth Rate (U2OS; [4]),Growth Rate (U2OS; [9]),Growth Rate (U2OS; [5]),Growth Rate (U2OS; [8]),other results
CCc1nnc(NS(=O)(=O)c2ccc(NC(=S)NC(=O)/C=C/c3ccc(F)cc3)cc2)s1,0.59,0.64,0.53,0.58,0.67,0.73,-0.01,0.7,0.53,0.53,0.62,0.61,0.07,-0.11,0.55,0.77,0.81,0.86,0.86,–,Growth Rate (Fibroblast; [7]): 0.82
COc1cc(Nc2nc(C)cc(-c3cnn4nc(OC)ccc34)n2)cc(C(F)(F)F)c1,–,–,–,–,–,0.85,–,–,–,0.67 and 0.25,–,0.58 and 0.24,0.11,0.84,0.24,0.61 and 0.48,0.85 and 0.45,0.62 and 0.36,0.62 and 0.35,1 and 0.46,Growth Rate (HEK-293T; [10]): 0.76; Growth Rate (HEK-293T; [7]): 0.89; Growth Rate (HEK-293T; [8]): 0.84; Growth Rate (HEK-293T; [9]): 0.94; Growth Rate (U2OS; [7]): 0.89 and 0.77; Growth Rate (U2OS; [6]): 0.76 and 0.27
CC(C)c1cc(Oc2c(Cl)cc(-n3nc(C#N)c(=O)[nH]c3=O)cc2Cl)n[nH]c1=O [RESMETIROM],0.23,0.99,0.77,–,–,0.86,0.82,–,0.74,0.87,–,0.85,0.87,0.06,0.7,–,0.83,0.79,0.99,0.75,Growth Rate (HEK-293T; [10]): 0.01; Growth Rate (HEK-293T; [9]): 0.96; Growth Rate (Fibroblast; [10]): -0.06; Growth Rate (Fibroblast; [7]): 0.58; Growth Rate (U2OS; [7]): 0.54
OCc1cc(C(O)CNCCCCCCOCCCCc2ccccc2)ccc1O (centres undefined) [SALMETEROL],–,0.2,0.7,0.75,0.7,0.71,0.63,–,0.59,0.72,–,–,–,–,0.56,0.56,0.81,–,0.95,0.98,Growth Rate (HEK-293T; [7]): 0.28; Growth Rate (HEK-293T; [8]): 0.57; Growth Rate (HEK-293T; [9]): 0.72; Growth Rate (Fibroblast; [10]): 0.1
CC(C)CCC[C@@H](C)[C@H]1CC[C@H]2[C@@H]3[C@H](O)C=C4C[C@@H](O)CC[C@]4(C)[C@H]3CC[C@]12C,-0.21,–,–,0.84,0.85,0.96,-0.09,0.24,0.91,0.84,0.5,0.43,–,0.03,0.98,–,–,–,–,–,Growth Rate (HEK-293T; [10]): 0.95; Growth Rate (Fibroblast; [2]): 0.24; Growth Rate (Fibroblast; [7]): 0.56; Growth Rate (Fibroblast; [4]): 0.52
COc1cc2nc(N3CCN(C(=O)c4ccco4)CC3)nc(N)c2cc1OC.Cl [PRAZOSIN HYDROCHLORIDE],–,0.79,0.66,0.88,0.92,–,–,0.21,0.92,–,0.44,–,-0.45,–,0.78,0.57,0.56,–,0.77,0.91,Growth Rate (Fibroblast; [2]): -0.46; Growth Rate (Fibroblast; [4]): 0.49; Growth Rate (U2OS; [6]): 0.92
CN1CCC(C(=O)c2cccc(NC(=O)c3c(F)cc(F)cc3F)n2)CC1,-1,0.24,0.74,0.81,0.93,–,0.32,0.6,–,0.96,0.59,0.78,–,0.68,0.94,–,–,–,–,–,Growth Rate (Fibroblast; [7]): 0.9; Growth Rate (Fibroblast; [4]): 0.86
Cc1ccc2c(c1CCC(=O)O)CC[C@@H](NS(=O)(=O)c1ccc(Cl)cc1)C2 [TERUTROBAN],0.31,0.87,–,0.99,0.94,–,0,–,–,–,0.83,–,-0.59,-1,–,–,–,–,–,–,Growth Rate (HEK-293T; [10]): 0.06; Growth Rate (HEK-293T; [9]): 0.97; Growth Rate (Fibroblast; [10]): -0.56
Cn1cc(-c2ccc3occ(-c4cccc(-c5ccncc5)c4)c3n2)cn1,–,-0.87,-0.67,-0.56,-0.43,-0.32,–,-0.95,-0.62,-0.23,-0.84,0.02,-0.88,–,-0.02,-0.03,-0.03,0.09,-0.02,-0.05,Growth Rate (HEK-293T; [7]): -0.61; Growth Rate (HEK-293T; [8]): -0.44; Growth Rate (HEK-293T; [9]): -0.33; Growth Rate (Fibroblast; [2]): -0.96; Growth Rate (Fibroblast; [4]): -0.87; Growth Rate (U2OS; [7]): -0.14; Growth Rate (U2OS; [6]): 0.09
CN1CCc2cc(Cl)c(O)cc2[C@@H](c2ccccc2)C1.Cl,0.66,–,–,–,–,–,–,1,–,–,0.88,–,–,-1,–,–,–,0.86,–,–,Growth Rate (HEK-293T; [7]): 0.46; Growth Rate (HEK-293T; [8]): 0.71; Growth Rate (Fibroblast; [2]): -0.06; Growth Rate (U2OS; [7]): 0.49; Growth Rate (U2OS; [6]): 0.95
O=C(Nc1cc(C(F)(F)F)ccc1N1CCCCC1)c1ccncc1,0.52,–,–,–,–,0.95,0.62,0.52,–,–,0.59,0.83,-0.22,0.81,0.54,0.85,0.87,0.99,0.81,0.76,Growth Rate (HEK-293T; [10]): 0.08; Growth Rate (HEK-293T; [8]): 0.9; Growth Rate (Fibroblast; [2]): -0.18; Growth Rate (Fibroblast; [4]): 0.65; Growth Rate (U2OS; [7]): 0.75
